The values that follow come from patent US20260275368A1, “COUMARIN SYNTHESIS AND USES THEREOF” (BASF SE, priority 2022, published 2026).

The test system of one data set is soybean plants. The data set is described as follows: Rating for plant health of T1 soybean plants. The format is in vivo. How it is done: 12 T1 soybean plants per event and respective controls are potted and grown for 3-4 weeks in the phytochamber (16 h day-und 8 h-night-Rhythm at a temperature of 16° and 22° C. und a humidity of 75%) till the first 2 trifoliate leaves were fully expanded. A general rating of plant health is performed before (and partially after) the infection experiment. Only those plants are selected for inoculation that show, in general, a healthy phenotype. Healthy phenotype means normal growth habit, green, fully expanded green leaves, having no or only minor lesions, no obvious yellowing, leaf drop or other stress-associated phenotypes.

The next data set has as its system Phakopsora pachyrhizi. The data set is described as follows: Pathogen assay for soybean: susceptibility to soybean rust (diseased leaf area). The format is in vivo, Phakopsora pachyrhizi on soybean. The method, then: 12 T1 soybean plants per event and respective controls are potted and grown for 3-4 weeks in the phytochamber (16 h day-und 8 h-night-Rhythm at a temperature of 16° and 22° C. und a humidity of 75%) till the first 2 trifoliate leaves were fully expanded.
The plants are inoculated with spores of P. pachyrhizi. In order to obtain appropriate spore material for the inoculation, soybean leaves, which are infected with rust 15-20 days ago, are taken 2-3 days before the inoculation and transferred to agar plates (1% agar in H2O). The leaves are placed with their upper side onto the agar, which allowed the fungus to grow through the tissue and to produce very young spores. For the inoculation solution, the spores are knocked off the leaves and are added to a Tween-H2O solution. The counting of spores is performed under a light microscope by means of a Thoma counting chamber. […]
The progression of the soybean rust disease is scored in percent by the estimation of the diseased area (area which was covered by sporulating uredinia) on the backside (abaxial side) of the leaf. […]
At all 11-12 T1 soybean plants per event and 5 independent events per construct were inoculated with spores of Phakopsora pachyrhizi. The macroscopic disease symptoms of soybean against P. pachyrhizi of the inoculated soybean plants were scored 14 days after inoculation. […]

[1] abbreviates: transgenic soybean accumulating the coumarin, compared with WT.

Structures are written as SMILES.

Take `COc1cc2ccc(=O)oc2cc1O` [Scopoletin, scopoletin, reference compound]: in the data set with soybean plants (setting [1]), the Germination rate entry was “Slightly”, the first trifoliate leaf entry is “some”, the growth phenotype result was “Smaller” and the older leaves entry is reported as “Yellowing of”.
Regarding `COc1c(O)c(O)c2oc(=O)ccc2c1O` [Sideretin, sideretin], in the data set with soybean plants (in vivo), the Germination rate entry was “like WT”, the first trifoliate leaf result is “like WT”, the growth phenotype result is recorded as “like WT” and the older leaves entry is on record as “Unclear”. The “reduction of the diseased leaf area in comparison to non-transgenic control plants” value in the data set with Phakopsora pachyrhizi (59 T1 soybean plants (5 events) accumulating sideretin by expressing S8H+CYP82C4, inoculated with P. pachyrhizi spores, scored 14 days after inoculation, p<0.01) worked out at 41%. Besides, in the data set on Phakopsora pachyrhizi (accumulation of sideretin by expression of S8H and CYP82C4 (and F6H1 and CoSy) in T1 soybean, vs 18 wild type controls, 14 days after inoculation, p=0,009), the “increase of soybean rust resistance” value came to 41%.
